# Source: paper PMC6788984, “High-potency ligands for DREADD imaging and activation in rodents and monkeys” (Nature Communications, 2019)
# How the values were obtained:
# hM4Di [1] = molecular target: T1, hM4Di (Homo sapiens, UniProt P08173, A203G/Y113C); assay: DREADD-assisted metabolic mapping (DREAMM), [18F]FDG PET in D1-hM4Di mice; assay type: in vivo, mouse; design: 026219; host or cells: mouse brain, dopamine D1 receptor-expressing neurons (transgene); settings: 0.1 mg kg-1 IP
# T1 sequence (P08173 1-479 Y113C/A203G): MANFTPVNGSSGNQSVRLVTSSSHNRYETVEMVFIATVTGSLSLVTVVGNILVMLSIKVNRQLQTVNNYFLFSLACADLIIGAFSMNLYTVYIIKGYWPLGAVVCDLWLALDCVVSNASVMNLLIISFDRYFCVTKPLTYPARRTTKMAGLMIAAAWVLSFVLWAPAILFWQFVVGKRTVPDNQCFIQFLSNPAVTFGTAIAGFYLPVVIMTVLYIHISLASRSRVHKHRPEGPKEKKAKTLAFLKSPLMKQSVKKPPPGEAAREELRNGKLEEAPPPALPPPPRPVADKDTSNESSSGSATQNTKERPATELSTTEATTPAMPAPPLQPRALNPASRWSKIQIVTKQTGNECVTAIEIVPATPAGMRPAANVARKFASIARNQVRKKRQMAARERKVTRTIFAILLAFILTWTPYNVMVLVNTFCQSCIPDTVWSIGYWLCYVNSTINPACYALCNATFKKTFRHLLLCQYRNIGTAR
# Experimental: Mice (D1-hM3Dq, D1-hM4Di or WT littermates, see above) were habituated to experimenter handling and fasted 16 h before the experiment. On the day of the experiment, mice received an IP injection of vehicle (1 ml kg^−1) and were placed back into their home cages. Ten minutes later, mice were injected (IP) with 11 MBq of 2-deoxy-2-[^18F]fluoro-D-glucose (FDG, Cardinal Health) and placed back into their home cages. After 30 min, mice were anesthetized with 1.5% isoflurane, placed on a custom-made bed of a nanoScan small animal PET/CT scanner (Mediso Medical Imaging Systems) and scanned for 20 min on a static acquisition protocol, followed by a CT scan. […] Voxel-based repeated measures with Student’s t test comparing baseline to drug were performed, and the resulting parametric images were filtered for statistically significant (p < 0.05) clusters larger than 100 contiguous voxels. All statistical parametric mapping analyses were performed using Matlab R2016 (Mathworks) and SPM12 (University College London).
# hM4Di [2] = molecular target: T1, hM4Di; assay: In vivo electrophysiology: ChrimsonR light-evoked responses in LA of mice expressing hM4Di in MGM terminals; design: 026219; host or cells: mouse brain, dopamine D1 receptor-expressing neurons (transgene); species or system mouse; settings: 0.1 mg kg-1 IP
# Experimental: Mice were purchased from Janvier Labs and stored in grouped cages (maximun 4 per cage) with ad libitum access to food and water, and in a 12 h light/dark cycle (lights on at 7:00 a.m.). All the experiments were performed in accordance to the national Danish law for the use of laboratory animals and approved by local authorities.
# For AAV injection, mice were anaesthetized with Isoflurane and placed in a stereotaxic holder (Narishige, Japan). A trephine hole was drilled above the MGM (from bregma, AP 3.1 mm, ML 1.8 mm). Several injections of a mixture of ssAAV-8/2-hSyn1-hM4D(Gi)_mCherry-WPRE-hGHp(A) and ssAAV-8/2-hSyn1-oChIEF_ChrimsonR_mCitrine-WPRE-SV40pA (in a 1:4 viral particle ratio) were performed sequentially in different locations (AP 3.05 mm, ML 1.75 mm, DV 3.2 and 3.5 mm; second location AP 3.2 mm, ML 1.85 mm, DV 3.3 and 3.6 mm) so that a total of 4 injections of 0.5 µL were made to distribute the virus evenly through the desired location. Injections were made using a pressurized picospritzer and a pulled glass pipette. After viral injection, animals were kept for 4 weeks to ensure maximum virus expression through axon terminals.
# For recording experiments, animals were anesthetized with […] urethane (i.p.), injected with 0.1 ml lidocaine (s.c.) in the incision points, and placed in a stereotaxic holder (Narishige, Japan). A trephine was drilled above the LA (from bregma, AP 1.5 mm, ML 3.1 mm) and the 32 channel opto-electrode was lowered whilst stimulating until a maximum response was located (DV 4 ± 0.2 mm). Body temperature was maintained constant at 37 °C through a feedback-regulated heating pad. Before recording, tissue was left for 10–20 mins for accommodation. Input–output test curves were recorded for both intensity and pulse length 30 min before and 1 h after drug injections using 1 ms-long pulses at 0.33 Hz (450 nm, 110 mA light intensity, ~14 mW, see Supplementary Fig. 10 Panel A). […]
smiles,measurement,setting,value
"CCN1CCN(C2=Nc3cc(Cl)ccc3Nc3c(F)cccc32)CC1 [JHU37160, 8-Chloro-11-(4-ethylpiperazin-1-yl)-4-fluoro-5H-dibenzo[b,e][1,4]diazepine]",brain metabolism ([18F]FDG),hM4Di [1],increased metabolism
same,"light-evoked response, % of baseline (maximal inhibition)",hM4Di [2]; 30 min after injection,19 ± 2 % of baseline
same,inhibition of ChrimsonR-induced terminal activation,hM4Di [2]; ~10 min,60%
same,"light-evoked response, % of baseline",hM4Di [2]; ~10 min,36 ± 9 % of baseline
